# In patent US8343475B2, “Small cationic antimicrobial peptides” (priority 2006, dated 2013):
# Like-named read-outs stand apart in the source and are kept apart here. Residues, ends and D or L forms follow the SMILES beside them.
# What was measured:
# [1] = system: Pseudomonas aeruginosa PAO1 strain H103; assay type: cell-based
# Summary of the method: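 Modified broth microdilution MIC in Mueller Hinton medium, peptides diluted in 0.01% acetic acid/0.2% BSA, polypropylene plates. Inoculum 2-7×10^5 CFU/ml, overnight at 37 °C; MIC is the lowest concentration with no visible growth.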
# [2] = system: Enterococcus faecalis ATCC29212; assay type: cell-based
# Procedure: (§1) Minimal inhibitory concentration (MIC) determination. The MIC of the peptides were measured using a modified broth microdilution method in Mueller Hinton (MH) medium (Wu M, Hancock R E W. 1999. Interaction of the cyclic antimicrobial cationic peptide bactenecin with the outer and cytoplasmic membrane. J Biol Chem 274, 29-35). Briefly, the peptides were dissolved and stored in glass vials. The assay was performed in sterile 96-well polypropylene microtitre plates were used. Serial dilutions of the peptides to be assayed were performed in 0.01% acetic acid (Fisher) containing 0.2% bovine serum albumin (Boehringer Mannheim GmbH) at 10× the desired final concentration. Ten microlitres of the 10× peptides were added to each well of a 96-well polypropylene plate containing 90 μl of MH media per well. Bacteria were added to the plate from an overnight culture at 2-7×10^5 colony forming units/ml and incubated over night at 37° C. The MIC was taken as the concentration at which no growth was observed.
# (§2) Strains. For the killing assay a mini-Tn5-lux mutant in Pseudomonas aeruginosa H103 was used. The strain is called H1001 and contains a fliC::luxCDABE transcriptional fusion resulting in constitutive expression of luciferase. The bacterial strains used for the antimicrobial activity assays included Escherichia coli UB1005 (F-, nalA37, metB1), a wild-type Salmonella enterica ssp. typhimurium (S. typhimurium), wild-type Pseudomonas aeruginosa PAO1 strain H103, Enterococcus faecalis ATCC29212, Staphylococcus aureus ATCC25923, and a clinical isolate of Staphylococcus epidermidis obtained from Dr. D. Speert (Department of Medicine, University of British Columbia). Antifungal activity was tested using a lab isolate of Candida albicans obtained from Dr. B. Dill (Department of Microbiology and Immunology, University of British Columbia).
# Escherichia coli UB1005 = assay type: cell-based
# Procedure: as §1, §2
# [3] = system: Staphylococcus aureus ATCC25923; assay type: cell-based
# Procedure: as §1, §2
# [4] = system: clinical isolate of Staphylococcus epidermidis; assay type: cell-based
# Procedure: as §1, §2
# [5] = system: lab isolate of Candida albicans; assay type: cell-based
# Procedure: as §1, §2
# [6] = system: wild-type Salmonella enterica ssp. typhimurium; assay type: cell-based
# Procedure: as §1, §2
# [7] = system: MCP-1 release by human PBMC; assay: Chemokine induction in PBMC (capture ELISA); assay type: cell-based; conditions: background (204) subtracted
# Procedure: FIG. 15. Induction of MCP-1 release by 7.5×10^5 human PBMC in response to treatment with 20 or 100 μg/ml of different peptides for 24 hours.
# (§3) Venous blood (20 ml) from healthy volunteers was collected in Vacutainer® collection tubes containing sodium heparin as an anticoagulant (Becton Dickinson, Mississauga, ON) in accordance with UBC ethical approval and guidelines. Blood was diluted 1:1 with complete RPMI 1640 medium and separated by centrifugation over a Ficoll-Paque® Plus (Amersham Biosciences, Piscataway, N.J., USA) density gradient. White blood cells were isolated from the buffy coat, washed twice in RPMI 1640 complete medium, and the number of peripheral blood mononuclear cells (PBMC) was determined by trypan blue exclusion. PBMC (5×10^5) were seeded into 12-well tissue culture dishes (Falcon; Becton Dickinson) at 0.75 to 1×10^6 cells/ml at 37° C. in 5% CO2. The above conditions were chosen to mimic conditions for circulating blood monocytes entering tissues at the site of infection via extravasation.
# (§4) Following incubation of the cells under various treatment regimens, the tissue culture supernatants were centrifuged at 1000×g for 5 min, then at 10,000×g for 2 min to obtain cell-free samples. Supernatants were aliquoted and then stored at −20° C. prior to assay for various chemokines by capture ELISA (eBioscience and BioSource International Inc., CA, USA respectively)
# [8] = system: MCP-3 release by human PBMC; assay: Chemokine induction in PBMC (capture ELISA); assay type: cell-based; conditions: background (6) subtracted
# Procedure: FIG. 16. Induction of MCP3 release by 7.5×10^5 human PBMC in response to treatment with 20 or 100 μg/ml of different peptides for 24 hours.
# as §3, §4
# [9] = system: CXCL1 (Gro-α) release by human PBMC; assay: Chemokine induction in PBMC (capture ELISA); assay type: cell-based; conditions: background (196) subtracted
# Procedure: FIG. 17. Induction of CXCL1 (Gro-α) release by 7.5×10^5 human PBMC in response to treatment with 20 or 100 μg/ml of different peptides for 24 hours.
# as §3, §4
# [10] = system: clinical isolates of MRSA; assay type: cell-based, Staphylococcus aureus
# Procedure: as §1
# (§5) All peptides derived from the 1st, 2nd, and 3rd quartiles were further evaluated for their antibacterial activities against several highly antibitoic resistant pathogens (Table 3). These included clinical isolates of MRSA, ESBL E. cloacae, and multidrug resistant Pseudomonas strains including Brazilian clinical isolates of P. aeruginosa that are resistant to meropenem, ceftazidime, piperacillin/tazobactam, ciprofloxacin, cefepime and polymyxin B, and the Liverpool Epidemic Strains. […] Such results characterize the developed peptides as excellent antibiotic candidates, providing new means for treating most dangerous and severe forms of human infections.
# ESBL E. cloacae = assay type: cell-based, Enterobacter cloacae
# Procedure: as §1, §5
# [11] = system: Liverpool Epidemic Strains; assay type: cell-based, Pseudomonas aeruginosa
# Procedure: as §1, §5
# [12] = system: ESBL E. coli clinical strain 64771; assay type: cell-based; conditions: ESBL clinical strain 64771
# Procedure: as §1
# (§6) The selected peptides were synthesized and assayed against several major antibiotic-resistant pathogens. Initially, the peptides were screened against the laboratory strain of P. aeruginosa PAO1 to compare the results with the training data. […] The antibacterial activity in the form of minimal inhibitory concentration (MIC) of the other studied peptides was assessed in greater depth (Table 9) against many highly antibiotic resistanct pathogens.
# [13] = system: ESBL Klebsiella pneumonia clinical strain 63575; assay type: cell-based
# Procedure: as §1, §6
# [14] = system: multidrug resistant Pseudomonas maltophilia ATCC13637; assay type: cell-based
# Procedure: as §1, §6
# [15] = indolicidin substitution variants (Table 4)
Structure (SMILES),MIC P. aerug ([1]; PAO1) [µg/mL],MIC E. faecalis ([2]; ATCC29212) [µg/mL],MIC S. aureus ([3]; ATCC25923) [µg/mL],MIC S. epi. ([4]; clinical isolate of) [µg/mL],MIC C. albicans ([5]; lab isolate of) [µg/mL],MIC S. typhi [6] [µg/mL],Chemokine induction MCP-1 ([7]; 20 μg/ml peptide) [pg/mL],Chemokine induction MCP-1 ([7]; 100 μg/ml peptide) [pg/mL],Chemokine induction MCP-3 ([8]; 20 μg/ml peptide) [pg/mL],Chemokine induction MCP-3 ([8]; 100 μg/ml peptide) [pg/mL],Chemokine induction Gro-α ([9]; 20 μg/ml peptide) [pg/mL],Chemokine induction Gro-α ([9]; 100 μg/ml peptide) [pg/mL],MIC ([2]; ATCC29212) [µM],MIC ([3]; ATCC25923) [µM],MIC [10] [µM],MIC (ESBL E. cloacae) [µM],MIC [11] [µM],MIC [12] [µM],MIC [13] [µM],MIC [14] [µM],other results
"CC[C@H](C)[C@H](NC(=O)[C@H](CCCNC(=N)N)NC(=O)[C@H](Cc1ccccc1)NC(=O)[C@H](CCC(N)=O)NC(=O)[C@@H](N)CCCCN)C(=O)N[C@@H](CCCNC(=N)N)C(=O)N[C@H](C(=O)N[C@@H](CCCNC(=N)N)C(=O)N[C@H](C(=O)N[C@H](C(=O)N[C@@H](CCCNC(=N)N)C(=O)N[C@@H](CCCCN)C(N)=O)[C@@H](C)CC)C(C)C)C(C)C [HH12, KQFRIRVRVIRK] (H-KQFRIRVRVIRK-NH2; N-terminus assumed)",6,25,12,1.6,6,6,1649,635,91,21,773,172,–,–,–,–,–,–,–,–,MIC E. coli (Escherichia coli UB1005; UB1005): 3 µg/mL
"CC(C)C[C@H](NC(=O)[C@@H](N)Cc1ccccc1)C(=O)N1CCC[C@H]1C(=O)N[C@@H](CCCCN)C(=O)N[C@@H](CCCCN)C(=O)N[C@@H](Cc1ccccc1)C(=O)N[C@@H](CCCNC(=N)N)C(=O)N[C@@H](Cc1c[nH]c2ccccc12)C(=O)N[C@@H](Cc1c[nH]c2ccccc12)C(=O)N[C@@H](CCCCN)C(=O)N[C@@H](Cc1ccc(O)cc1)C(=O)N[C@@H](CCCNC(=N)N)C(=O)N[C@@H](CCCCN)C(N)=O [HH972, FLPKKFRWWKYRK] (H-FLPKKFRWWKYRK-NH2; N-terminus assumed)",31,>125,31,8,31,31,–,–,–,–,–,–,–,–,–,–,–,–,–,–,MIC E. coli (Escherichia coli UB1005; [15]): 16 µg/mL
"CC[C@H](C)[C@H](NC(=O)[C@@H](N)CCCCN)C(=O)N[C@@H](Cc1c[nH]c2ccccc12)C(=O)N[C@@H](Cc1c[nH]c2ccccc12)C(=O)N[C@@H](Cc1c[nH]c2ccccc12)C(=O)N[C@@H](Cc1c[nH]c2ccccc12)C(=O)N[C@@H](CCCNC(=N)N)C(=O)N[C@@H](CCCCN)C(=O)N[C@@H](CCCNC(=N)N)C(N)=O [HHC8, KIWWWWRKR] (H-KIWWWWRKR-NH2; N-terminus assumed)",–,–,–,–,–,–,68,835,1,4,9,-11,24,6,6,94,5.9,6,47,3,–
"N=C(N)NCCC[C@H](NC(=O)[C@H](CCCNC(=N)N)NC(=O)[C@@H](N)Cc1ccccc1)C(=O)N[C@@H](Cc1c[nH]c2ccccc12)C(=O)N[C@@H](Cc1c[nH]c2ccccc12)C(=O)N[C@@H](CCCCN)C(=O)N[C@@H](Cc1c[nH]c2ccccc12)C(=O)N[C@@H](Cc1ccccc1)C(=O)N[C@@H](CCCCN)C(N)=O [HHC53, FRRWWKWFK] (H-FRRWWKWFK-NH2; N-terminus assumed)",–,–,–,–,–,–,-26,391,-1,5,-23,2,24,1.5,3,24,1.5,6,24,0.8,MIC against P. aeruginosa PAO1 ([1]; PAO1): 4 to 12 µM
"CC[C@H](C)[C@H](NC(=O)[C@H](CCCNC(=N)N)NC(=O)[C@H](CCCCN)NC(=O)[C@@H](NC(=O)[C@H](Cc1c[nH]c2ccccc12)NC(=O)[C@H](Cc1c[nH]c2ccccc12)NC(=O)[C@H](Cc1c[nH]c2ccccc12)NC(=O)[C@H](CCCNC(=N)N)NC(=O)[C@@H](N)CC(C)C)[C@@H](C)CC)C(N)=O [HHC57, LRWWWIKRI] (H-LRWWWIKRI-NH2; N-terminus assumed)",–,–,–,–,–,–,146,1364,0,9,21,18,13,6,63,50,6,13,50,3,MIC against P. aeruginosa PAO1 ([1]; PAO1): 4 to 12 µM
"CC[C@H](C)[C@H](N)C(=O)N[C@@H](CC(C)C)C(=O)N1CCC[C@H]1C(=O)N[C@@H](Cc1c[nH]c2ccccc12)C(=O)N[C@@H](CCCCN)C(=O)N[C@@H](Cc1c[nH]c2ccccc12)C(=O)N1CCC[C@H]1C(=O)N[C@@H](Cc1c[nH]c2ccccc12)C(=O)N[C@@H](Cc1c[nH]c2ccccc12)C(=O)N1CCC[C@H]1C(=O)N[C@@H](Cc1c[nH]c2ccccc12)C(=O)N[C@@H](CCCNC(=N)N)C(=O)N[C@@H](CCCNC(=N)N)C(N)=O [Indolicidin, ILPWKWPWWPWRR-NH2, reference compound]",–,–,–,–,–,31,–,–,–,–,–,–,–,–,–,–,–,–,–,–,"MIC P. aerug [1, 15]: 62 µg/mL; MIC E. faecalis [2, 15]: 31 µg/mL; MIC E. coli (Escherichia coli UB1005; [15]): 8 µg/mL; MIC S. aureus [3, 15]: 16 µg/mL; MIC S. epi. [4, 15]: 8 µg/mL; MIC C. albicans [5, 15]: 16 µg/mL"
